SMILES strings stand for the structures.

The target in assay [1] is Carbonic anhydrase 5A, mitochondrial (Homo sapiens) (UniProt P35218). As to the kind of experiment: Inhibition of human mitochondrial CA5A by CO2 hydration assay.
Assay [2] concerns the target Carbonic anhydrase 5B, mitochondrial (Homo sapiens) (UniProt Q9Y2D0).
Description: Inhibition of human mitochondrial CA5B by CO2 hydration assay

Sequence of Carbonic anhydrase 5A, mitochondrial (Homo sapiens) (P35218 whole entry): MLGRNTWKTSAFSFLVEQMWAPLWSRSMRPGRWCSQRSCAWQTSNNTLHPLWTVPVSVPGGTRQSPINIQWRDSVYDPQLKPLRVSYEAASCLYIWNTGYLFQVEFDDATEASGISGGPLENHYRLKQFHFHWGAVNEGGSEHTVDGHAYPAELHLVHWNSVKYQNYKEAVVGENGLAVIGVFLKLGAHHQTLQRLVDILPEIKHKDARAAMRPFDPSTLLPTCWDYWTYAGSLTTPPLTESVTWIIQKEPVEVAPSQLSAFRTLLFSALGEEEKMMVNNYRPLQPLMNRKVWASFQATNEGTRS
Sequence of Carbonic anhydrase 5B, mitochondrial (Homo sapiens) (Q9Y2D0 whole entry): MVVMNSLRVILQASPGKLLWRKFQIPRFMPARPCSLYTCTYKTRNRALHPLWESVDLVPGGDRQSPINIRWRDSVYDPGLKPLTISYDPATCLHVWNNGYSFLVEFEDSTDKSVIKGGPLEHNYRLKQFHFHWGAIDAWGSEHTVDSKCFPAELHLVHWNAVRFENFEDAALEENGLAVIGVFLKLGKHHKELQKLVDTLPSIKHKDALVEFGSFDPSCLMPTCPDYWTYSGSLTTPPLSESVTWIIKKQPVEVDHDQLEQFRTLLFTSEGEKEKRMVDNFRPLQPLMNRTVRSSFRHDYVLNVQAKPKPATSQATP

Turning to `OB(O)c1ccccc1`, the Kinact in assay [1] stood at 1.04 mM.

On to `O=[As](O)(O)c1ccccc1`, for which the Kinact in assay [1] worked out at 1.02 mM; in assay [2], 0.082 mM.

The values above are taken from ChEMBL document CHEMBL1137441, “Carbonic anhydrase inhibitors: the inhibition profiles of the human mitochondrial isoforms VA and VB with anions are very different” (Bioorg Med Chem, 2007).
